Laboratory results reported in US20230000872A1, “TRPA1 ANTAGONIST FOR THE TREATMENT OF PAIN ASSOCIATED TO DIABETIC NEUROPATHIC PAIN” (Glenmark Pharmaceuticals S.A., priority 2014, published 2023).

Key:
[1] = system: subjects with painful DPN; assay: Phase II clinical study of Compound I 250 mg BID, 4 weeks, in subjects with painful diabetic neuropathy (Example 1); format: in vivo, human; set-up: key to Mean API score (24-hour): 11-point pain intensity NRS (0–10); key to Night-time API Score, mean score: API score on 11-point pain intensity NRS (0–10); conditions: for Sleep interference score, mean score: 11-point scale; for API Score, mean score: 11-point NRS; for % subject population with >30% Reduction from baseline API Score / % subject population with >50% Reduction from baseline API Score: end of 4 week treatment
Description: Example 1: A Phase II Clinical Study to Evaluate Efficacy, Safety and Tolerability of Compound I in Subjects With Painful Diabetic Neuropathy
• To assess the efficacy of Compound I in the treatment of pain associated with diabetic peripheral neuropathy (DPN). • To evaluate the safety and tolerability of Compound I administered once daily (OD) or twice daily (BID) in subjects with painful DPN. • To investigate effect of Compound I on time to sustained improvement in pain, night-time pain, intensity of pain on neuropathic pain symptoms inventory (NPSI), and sleep in subjects with painful DPN. • To evaluate number of subjects who are responders on the […] of Change (PGIC) Questionnaire, Clinician Global Impression of Change (CGIC) Questionnaire; and number of subjects who achieve various levels of percent reduction in pain. • To investigate the pharmacokinetics (PK) of Compound I in subjects with DPN • To investigate effect of Compound I on the use of rescue medication (ibuprofen 400 mg to 600 mg four times a day or paracetamol 500 mg to 1000 mg two to three times a day) in subjects with painful DPN • To investigate effect of Compound I in subjects with painful DPN who have mechanical hyperalgesia and/or cold allodynia.
This was a multi-center, randomized, double-blind, placebo-controlled, parallel group, 4 week study of Compound I 250 mg BID in subjects with painful DPN. The study included a total of 138 subjects with DPN, randomized in a 1:1 ratio into 250 mg BID Compound I or Placebo. The study was conducted for a total period of 9 weeks as: up to a 2-week screening/washout period, a 1-week placebo-run in period, 4 weeks of treatment period and 2 weeks of follow-up period.
• Men and women (post-menopausal/surgically sterile only) aged between 18-75 (both inclusive) years • Subjects having diabetes mellitus (type 1 or 2) with a distal symmetric chronic sensorimotor painful peripheral neuropathy • A history of DPN pain for at least 6 months and no greater than 5 years. • DN4 “Douleur Neuropathique en 4” questions score of ≥4 • A baseline 24-hour average daily pain intensity score ≥4 and <9 as measured on a 11-point pain intensity NRS (numeric rating scale) • Subjects having stable glycemic control for at least one or two or three months prior to randomization having HbAlc (Glycosylated Hemoglobin) <8% • Subjects detected to have mechanical hyperalgesia and/or cold allodynia (detected with appropriate methodology)
Study medications were: • Placebo matching 250 mg Compound I during the placebo run-in period was taken orally BID in a fed state (30 minutes after breakfast/dinner) every day for day −7 to day −1 during Run-in period. The time interval between 2 consecutive doses must be 12 hours±60 min • 250 mg Compound I potassium granules or matching placebo during day-1 to day-28 treatment period. The time interval between 2 consecutive doses was 12 hours±60 min. • Reference therapy: Placebo to match investigational product, administered BID.
Clinical Endpoints were: • Change from baseline to end of treatment (i.e., baseline to end of week 4) in the mean 24-hour API score based on an 11-point pain intensity NRS • Change from baseline at the end of week 1, 2, 3, 4 and 6 in: • Mean night-time API (average pain intensity) Score (subject diary): night-time is defined as the time between going to bed at night and rising in the morning • Mean night-time worst pain intensity Score (subject diary): worst pain is defined as the subject's assessment of their worst pain intensity for the time period • Mean sleep interference Score (subject diary): A 11-point scale that asks subjects to select the score that best describes how much the pain interfered with sleep during the past 24 hours.

[2] = system: subjects with painful DPN and having preserved peripheral nerve function; assay: Phase II clinical study of Compound I 250 mg BID, 4 week treatment plus 2 weeks follow up, in subjects with painful DPN and preserved peripheral nerve function (Example 2); format: in vivo, human
Description: Example 2: A Phase II Clinical Study to Evaluate Efficacy, Safety and Tolerability of Compound I in Subjects With Painful Diabetic Neuropathy
• Objectives of this study were To assess the safety, efficacy and tolerability of Compound I in the treatment of pain associated with diabetic peripheral neuropathy (DPN) and to evaluate efficacy of Compound I administered once daily (OD) or twice daily (BID) in subjects with painful DPN and having preserved peripheral nerve function and to investigate effect of Compound I on time to sustained improvement in pain, night-time pain, intensity of pain on neuropathic pain symptoms inventory (NPSI), and sleep in subjects with painful DPN and having preserved peripheral nerve function. • This was a randomized, double-blind, placebo-controlled, parallel group, 4 week treatment followed by 2 weeks follow up study of Compound I 250 mg and placebo BID in subjects with painful DPN and having preserved peripheral nerve function. The study included a total of 136 subjects with DPN and having preserved peripheral nerve function. • Clinical Endpoints were change from baseline in mean 24-hour API score based on an 11-point pain intensity NRS at the end of week 4 and week 6 in • In ITT ([…]) population and • In subject having one or more from baseline average pain intensity (API) score of ≥5, Cold detection threshold >18° C. at baseline as determined by QST and Warm detection threshold <49° C. at baseline as determined by QST

[3] = Sub-group: Hypersensitivity to cold stimulus and/or mechanical stimulus, Week 4
[4] = Sub-group: Moderate to severe pain (NRS score 5-8) and hypersensitivity to cold stimulus and/or mechanical stimulus, Week 4
[5] = Sub-group: Moderate to severe pain (NRS score 5-8) and preserved peripheral sensory neurons, Week 4
[6] = Sub-group: Moderate to severe pain (NRS score 5-8), Week 4
[7] = Sub-group: Preserved peripheral sensory neurons (non-denervation by QST), Week 4
[8] = Week 0 (baseline), 250 mg BID oral
[9] = Week 4 vs baseline, 250 mg BID oral
[10] = Sub-group: Hypersensitivity to cold stimulus and/or mechanical stimulus
[11] = Sub-group: Moderate to severe pain (NRS score 5-8)
[12] = Sub-group: Moderate to severe pain (NRS score 5-8) and hypersensitivity to cold stimulus and/or mechanical stimulus
[13] = Sub-group: Moderate to severe pain (NRS score 5-8) and preserved peripheral sensory neurons
[14] = Sub-group: preserved peripheral sensory neurons
[15] = subjects with one or more of baseline API score ≥5, Cold detection threshold >18° C., Warm detection threshold <49° C. (QST), Week 4
[16] = subjects with one or more of baseline API score ≥5, Cold detection threshold >18° C., Warm detection threshold <49° C. (QST), Week 6

SMILES: Cn1c(=O)c2c(CC(=O)Nc3nc(-c4ccc(F)c(C(F)(F)F)c4F)cs3)csc2n(C)c1=O [Compound I, N-{4-[2,4-difluoro-3-(trifluoromethyl)phenyl]-1,3-thiazol-2-yl}-2-(1,3-dimethyl-2,4-dioxo-1,2,3,4-tetrahydrothieno[2,3-d]pyrimidin-5-yl)acetamide]
- Onset of Sustained improvement in 24-hour API Score ([1]; 250 mg BID oral): Score is achieved in 18 days
- Mean API score (24-hour) ([1]; Sub-group: Hypersensitivity to cold stimulus and/or mechanical stimulus, Week 0 (baseline)): 6.1
- API score % Reduction from baseline [1, 3]: 32.78%
- Mean API score (24-hour) [1, 3]: 4.1
- Mean API score (24-hour) ([1]; Sub-group: Moderate to severe pain (NRS score 5-8) and hypersensitivity to cold stimulus and/or mechanical stimulus, Week 0 (baseline)): 6.5
- API score % Reduction from baseline [1, 4]: 36.92%
- Mean API score (24-hour) [1, 4]: 4.1
- Mean API score (24-hour) ([1]; Sub-group: Moderate to severe pain (NRS score 5-8) and preserved peripheral sensory neurons, Week 0 (baseline)): 6.4
- API score % Reduction from baseline [1, 5]: 35.93%
- Mean API score (24-hour) [1, 5]: 4.1
- Mean API score (24-hour) ([1]; Sub-group: Moderate to severe pain (NRS score 5-8), Week 0 (baseline)): 6.3
- API score % Reduction from baseline [1, 6]: 33.33%
- Mean API score (24-hour) [1, 6]: 4.2
- Mean API score (24-hour) ([1]; Sub-group: Preserved peripheral sensory neurons (non-denervation by QST), Week 0 (baseline)): 6.2
- API score % Reduction from baseline [1, 7]: 33.33%
- Mean API score (24-hour) [1, 7]: 4.1
- Mean daily dose of rescue medication [1, 8]: 425 mg
- Night-time API Score, mean score [1, 8]: 5.1
- Night-time Worst pain intensity Score, mean score [1, 8]: 5.3
- Sleep interference score, mean score [1, 8]: 4.5
- API Score, mean score ([1]; Week 0, 250 mg BID oral): 6.0
- Mean daily dose of rescue medication ([1]; Week 4, 250 mg BID oral): 111 mg
- Night-time API Score, mean score ([1]; Week 4, 250 mg BID oral): 3.4
- Night-time Worst pain intensity Score, mean score ([1]; Week 4, 250 mg BID oral): 3.5
- API Score, mean score ([1]; Week 4, 250 mg BID oral): 4.1
- Sleep interference score, mean score ([1]; Week 4, 250 mg BID oral): 2.7
- API Score, % Reduction ([1]; Week 4 vs Week 0, 250 mg BID oral): 31.66%
- Change in mean daily dose of rescue medication, % Reduction [1, 9]: 73.8%
- Night-time API Score, % Reduction [1, 9]: 33.33%
- Night-time Worst pain intensity Score, % Reduction [1, 9]: 33.96%
- Sleep interference score, % Reduction [1, 9]: 40%
- % subject population with >30% Reduction from baseline API Score [1, 10]: 59.1%
- % subject population with >50% Reduction from baseline API Score [1, 10]: 36.4%
- % subject population with >30% Reduction from baseline API Score [1, 11]: 58.6%
- % subject population with >50% Reduction from baseline API Score [1, 11]: 34.5%
- % subject population with >30% Reduction from baseline API Score [1, 12]: 66.7%
- % subject population with >50% Reduction from baseline API Score [1, 12]: 44.4%
- % subject population with >30% Reduction from baseline API Score [1, 13]: 56.7%
- % subject population with >50% Reduction from baseline API Score [1, 13]: 40.0%
- % subject population with >30% Reduction from baseline API Score [1, 14]: 52.9%
- % subject population with >50% Reduction from baseline API Score [1, 14]: 35.3%
- Mean API score ([2]; ITT population, Week 0 (baseline)): 6.0
- API score % Reduction from baseline ([2]; ITT population, Week 4): 32.16%
- Mean API score ([2]; ITT population, Week 4): 4.07
- API score % Reduction from baseline ([2]; ITT population, Week 6): 40.16%
- Mean API score ([2]; ITT population, Week 6): 3.59
- Mean API score ([2]; subjects with one or more of baseline API score ≥5, Cold detection threshold >18° C., Warm detection threshold <49° C. (QST), Week 0 (baseline)): 5.0
- API score % Reduction from baseline [2, 15]: 49.6%
- Mean API score [2, 15]: 2.52
- API score % Reduction from baseline [2, 16]: 66.2%
- Mean API score [2, 16]: 1.69
